Tests used:
[1] = system: fructose-induced hyperlipidemic rats; assay: Hypotriglyceridemic activity in fructose-induced hyperlipidemic rats; type: in vivo, Sprague Dawley rats; details: fructose-loaded rats, 30 mg/kg p.o. once daily for 7 days; for inhibition in vivo at 30 mg/kg: Rattus norvegicus, po, 168 h, read-out: Reduction in Serum Triglyceride (%)
Procedure: The compounds were tested for a hypotriglyceridemic activity in fructose-induced hyperlipidemic rats in accordance with the method described in Nippon Yakurigaku Zasshi, 92 (3), 175-180 (1988). Sprague Dawley rats were grouped by the ranking method of body weight. Then, instead of drinking water, rats were given 75% fructose aqueous ad libitum for one week, thereby, resulting in the state of hypertriglyceridemia. The compounds of the present invention, suspended in 3% Arabic gum aqueous solution, and a dose of 30 mg/kg was orally administrated once daily for 7 days during the fructose-loading period. The control group of rats were given 3% Arabic gum aqueous solution only. Two hours later of the final administration, the rats were bled from the abdominal aorta to measure serum triglycerides and total cholesterol. The reduction rate (%) of each measurement compared to the control groups was calculated according to the equation indicated in EXAMPLE 4.

[2] = system: 3T3-L1 preadipocyte cells; assay: Differentiation-inducing actions on adipose cells (oil red-O staining, absorbance at 490 nm); type: cell-based; details: 3T3-L1, oil red-O extract absorbance at 490 nm, ratio to control group (1.0)
Procedure: The cloned cell line 3T3-L1 of the preadipocyte cells at the 9-20th generation were used. The cell suspension at a concentration of 2×10^4 cells/ml was added 500 μl/well in a 24 well microplate. Then, the microplates were cultured at 37° C. in the atmosphere of 5% CO2 for 4 days with D-MEM containing 5% inactivated fetal calf serum (hereinafter abbreviated as “FCS D-MEM”). Next, the following procedures were conducted.
(1) To test compound of this invention, 500 μl/well of the following solutions was added to each well:
1) test compound-containing medium (T-MEM) in which the test compound in a stock solution (30 mM in DMSO) was diluted with FCS D-MEM containing 0.1 μM dexamethazone and 100 ng/ml insulin (hereinafter abbreviated as DEX-Ins-FCS D-MEM);
2) FCS-D-MEM; 3) DEX-Ins-FCS D-MEM; 4) 0.1% DMSO-containing DEX-Ins-FCS D-MEM for me control wells.
(2) After above additions were done, the culture plates were incubated at 37° C. in 5% CO2 for 3 days. Then, the same operations as in the procedure (1) were repeated for exchange of the culture medium. The culture plates were incubated at 37° C. in 5% CO2 for further 3 days.
(3) After incubation, the culture medium was removed from the culture plates. Then, the FCS D-MEM was added to the FCS D-MEM-wells, and next the medium prepared for containing 100 ng/ml of insulin with the FCS D-MEM (hereinafter abbreviated as “Ins-FCS D-MEM”) was added at 500 μl/well to the T-MEM wells and DEX-Ins-FCS D-MEM wells. All culture plates were incubated for 4 days.
(4) After incubation, the culture medium was removed. For cell fixation, 500 μl/well of 10% formalin in neutral buffer was added, and left at the room temperature for approximately 20 minutes or longer. Then the formalin solution was removed, and 60% 2-propanol solution was added at 500 μl/well, then quickly removed, and the oil red-O staining solution was added at 250 μl/well. The culture plates were sealed with plate seals, and left at room temperature for 30 minutes or longer. After incubation, the staining solution was removed, and the 60% 2-propanol solution was added at 500 μl/well, and quickly removed. The cells were rinsed with water a few times, and then water drops were flipped away. A cell-lysis buffer was added at 500 μl/well, and the culture plates were sealed with plate seals, and left at 37° C. for 1 hour to extract the pigments. Next, 300 μl/well of the extract solution was transferred at a 96 well micro-plates, and then the absorbance of each extract was measured at wavelength of 490 nm.
The absorbance ratios of the respective test compounds-groups to the control group, the mean absorbance of which was designated as 1.0, are shown in Table 8. Based on the judgement that the absorbance higher than that of the control group indicates a greater differentiation-inducing activity of the test compound, the compounds of the present invention were determined to have the activity to induce differentiation of preadipocytes to adipocytes, resulting in elevating insulin sensitivity of organs. Thereby, this activity would confer the efficacy in the therapy of diabetes.

[3] = system: high cholesterol-fed hamsters; assay: Lipid lowering effects in high cholesterol-fed hamsters; type: in vivo, Syrian hamsters; details: Example 9 (Table 12), 15 mg/kg p.o.
Excerpt: According to the method described in Jpn Pharmacol Ther, 23 (suppl 4), s1047-1053 (1995), male Syrian hamstars were fed for 3 weeks with 1% cholesterol 10% coconut oil (W/W) supplemented diet, and thereby, became to be hypercholesterolemia models. Prior to administration of the compounds, under ether anesthesia, the hamsters were bled from the orbital vein for measurement of serum total cholesterol. They were grouped in the manner by which the respective groups had almost equal serum total cholesterol levels. The normal group of hamsters were fed ordinary diet. Thereafter, the compound 1 and bezafibrate were orally administered once daily at doses of 15 (for only compound 1), 30, 60 and 120 mg/kg for 7 days. Even during the treatment period, cholesterol loading was continued. Four hours later of the final administration, the hamsters were bled by cardiac puncture. The total cholesterol and triglycerides in the serum obtained were measured by the enzymatic method. The results are shown in Table 11 (the negative values mean elevation rates.)
The actions of the compounds of the present invention at a dose of 15 mg/kg were measured in the same method as described in EXAMPLE 8.

db/db mice = assay: Antihyperlipidemic activities in genetically diabetic mice; type: in vivo; details: 150 mg/kg p.o. once daily for 14 days, serum
Procedure: (§1) Genetically diabetic db/db mice (C57BL/ksJ Jcl-dbm db/db mice) older than 8 weeks were grouped depend on their blood sugar levels of the prior measurements in order to divide groups with almost equal mean value of the sugar level. The respective groups of db/db mice were designates as the following groups: the group given the compound of the present invention, the group of troglitazone, and the group given no administrating group. For the compounds of the present invention, two doses: 75 mg/kg and 150 mg/kg, and for troglitazone, a dose of 150 mg/kg were individually given to the mice as a forced oral administration once daily for 14 days successively. These agents were suspended in 3.0% Arabic gum solution for administration. To the control group, only the same volume of 3.0% Arabic gum solution was administered. On the next day of the final administration, each mouse was […] for sampling. The blood samples were subject to serum separation. The glucose level in the serum of each group was measured. Then, a reduction rate in a glucose level (%) compared to the control group was calculated with mean value of each group according to the equation below. […] [formula]
In the same way as described in EXAMPLE 4, db/db mice were grouped in the manner by which the respective groups had almost equivalent mean blood sugar levels. The compounds 1, 3, 13, 21 and 22 of the present invention, suspended in 3.0% Arabic gum solution, were orally administrated, with a dose of 150 mg/kg, once daily for successive 14 days. The control group of mice were given the vehicle solution only. On the next day of the final administration, each mouse was bled for sampling. The blood was subjected for serum separation, and then subjected to measurements of β-lipoproteins, free fatty acids, and triglycerides. The reduction rate (%) of each measurement compared to the control group was calculated by the equation indicated in EXAMPLE 4. […] (Table 9).

[4] = system: Genetically diabetic db/db mice (C57BL/ksJ Jcl-dbm db/db mice); assay: Blood sugar lowering actions in genetically diabetic mice; type: in vivo; details: serum glucose vs control group
Procedure: as §1

[5] = 75 mg/kg oral once daily for 14 days
[6] = 150 mg/kg oral once daily for 14 days

For CC(=Cc1ccccc1)c1ccc(/C=C2/SC(=NC#N)NC2=O)cc1 [Compound 2, 2-(N-Cyanoimino)-5-[(E)-4-(α-methylstyryl)benzylidene]thiazolidin-4-one], which inhibition in vivo at 30 mg/kg [1] is on record?
The inhibition in vivo at 30 mg/kg was 67%.

What about the “Absorbance Ratio” value [2] of the same compound?
The value was 1.57.

And the “Reduction Rate (%) Total cholesterol” value [3]?
The value was 27%.

And the “Reduction Rate (%) Triglyceride” value [3]?
Its value is 57%.

With N#CN=C1NC(=O)C(=Cc2ccc(COCc3ccccc3)cc2)S1 [Compound 3, 2-(N-Cyanoimino)-5-[4-(benzyloxymethyl)benzylidene]thiazolidin-4-one] as the compound, how does the inhibition in vivo at 30 mg/kg [1] read?
The inhibition in vivo at 30 mg/kg was 64%.

What about the “Reduction Rate (%) Free Fatty Acids” value (db/db mice) of the same compound?
The value was 58%.

What about the “Reduction Rate (%) Triglycerides” value (db/db mice) of the same compound?
The value was 85%.

What about the “Reduction Rate (%) β-lipoproteins” value (db/db mice) of the same compound?
Its value is 65%.

What about the “Absorbance Ratio” value [2] of the same compound?
Its value is 1.48.

And the “Reduction in Blood Glucose (%)” value [4, 5]?
Its value is 24%.

What about the “Reduction in Blood Glucose (%)” value [4, 6] of the same compound?
Its value is 49%.

For CC(=Cc1ccc(/C=C2/SC(=NC#N)NC2=O)cc1)c1ccccc1 [Compound 4, 2-(N-Cyanoimino)-5-[(E)-4-(β-methylstyryl)benzylidene]thiazolidin-4-one], which inhibition in vivo at 30 mg/kg [1] is on record?
Its inhibition in vivo at 30 mg/kg is 42%.

And the “Absorbance Ratio” value [2]?
The value was 2.62.

Which “Absorbance Ratio” value [2] does the source give for N#CN=C1NC(=O)C(=Cc2ccc(OCCCc3ccccc3)cc2)S1 [Compound 5, 2-(N-Cyanoimino)-5-[4-(3-phenylpropoxy)benzylidene]thiazolidin-4-one] here?
Its value is 1.87.

With N#CN=C1NC(=O)C(=Cc2ccc(Oc3ccc(Cl)cc3)cc2)S1 [Compound 6, 2-(N-Cyanoimino)-5-[4-(4-chlorophenoxy)benzylidene]thiazolidine-4-one] as the compound, how does the inhibition in vivo at 30 mg/kg [1] read?
The inhibition in vivo at 30 mg/kg was 84%.

What does the source list for N#CN=C1NC(=O)C(=Cc2ccc(Sc3ccccc3)cc2)S1 [Compound 7, 2-(N-Cyanoimino)-5-(4-phenylthiobenzylidene)thiazolidin-4-one]?
inhibition in vivo at 30 mg/kg [1]: 60%; Absorbance Ratio [2]: 1.93

How did the inhibition in vivo at 30 mg/kg [1] turn out when N#CN=C1NC(=O)/C(=C\c2ccc(C=Cc3ccccc3F)cc2)S1 [Compound 8, 2-(N-Cyanoimino)-5-[(E)-4-(2-fluorostyryl)benzylidene]thiazolidin-4-one] was run?
Its inhibition in vivo at 30 mg/kg is 47%.

And the “Absorbance Ratio” value [2]?
Its value is 1.95.

Which inhibition in vivo at 30 mg/kg [1] does the source give for Cc1ccc(C)c(Oc2ccc(C=C3SC(=NC#N)NC3=O)cc2)c1 [Compound 9, 2-(N-Cyanoimino)-5-[4-(2,5-dimethylphenoxy)benzylidene]thiazolidin-4-one] here?
Its inhibition in vivo at 30 mg/kg is 49%.

How did the inhibition in vivo at 30 mg/kg [1] turn out when CC(COc1ccc(C=C2SC(=NC#N)NC2=O)cc1)c1ccccc1 (stereo not drawn) [Compound 11, 2-(N-Cyanoimino)-5-[4-(2-phenylpropoxy)benzylidene]thiazolidin-4-one] was run?
Its inhibition in vivo at 30 mg/kg is 62%.

Which inhibition in vivo at 30 mg/kg [1] does the source give for N#CN=C1NC(=O)C(=Cc2cccc(OCCc3ccccc3)c2)S1 [Compound 12, 2-(N-Cyanoimino)-5-(3-phenethyloxybenzylidene)thiazolidin-4-one] here?
The inhibition in vivo at 30 mg/kg was 59%.

And the “Absorbance Ratio” value [2]?
Its value is 1.74.

Which “Reduction in Serum Triglyceride (%)” value [1] does the source give for N#CN=C1NC(=O)C(=Cc2ccc(OCc3ccccc3)cc2)S1 [Compound 13] here?
The value was 55%.

What about the “Reduction Rate (%) Free Fatty Acids” value (db/db mice) of the same compound?
The value was 38%.

And the “Reduction Rate (%) Triglycerides” value (db/db mice)?
Its value is 70%.

And the “Reduction Rate (%) β-lipoproteins” value (db/db mice)?
The value was 65%.

What about the “Absorbance Ratio” value [2] of the same compound?
Its value is 2.51.

N#CN=C1NC(=O)C(=Cc2ccc(-c3cc4cc(Cl)ccc4o3)cc2)S1 [Compound 14, 2-(N-Cyanoimino)-5-[4-(5-chlorobenzofuran-2-yl)benzylidene]thiazolidin-4-one] was tested. Which inhibition in vivo at 30 mg/kg [1] did it give?
Its inhibition in vivo at 30 mg/kg is 36%.

Which results are given for N#CN=C1NC(=O)C(=Cc2cccc(Oc3ccccc3)c2)S1 [Compound 16, 2-(N-Cyanoimino)-5-(3-phenoxybenzylidene)thiazolidin-4-one]?
inhibition in vivo at 30 mg/kg [1]: 54%; Absorbance Ratio [2]: 1.18

For N#CN=C1NC(=O)C(=Cc2ccc(OCc3ccc4c(c3)OCO4)cc2)S1 [Compound 17, 2-(N-Cyanoimino)-5-[4-(1,3-benzodioxole-5-ylmethoxy)benzylidene]thiazolidin-4-one], which inhibition in vivo at 30 mg/kg [1] is on record?
The inhibition in vivo at 30 mg/kg was 37%.

What does the source list for N#CN=C1NC(=O)C(=Cc2ccc(OCc3ccc(Cl)cc3)cc2)S1 [Compound 19, 2-(N-Cyanoimino)-5-[4-(4-chlorobenzyloxy)benzylidene]thiazolidin-4-one]?
inhibition in vivo at 30 mg/kg [1]: 38%; Absorbance Ratio [2]: 1.51

What does the source list for N#CN=C1NC(=O)C(=Cc2ccccc2OCCc2ccccc2)S1 [Compound 21, 2-(N-Cyanoimino)-5-(2-phenethyloxybenzylidene)thiazolidin-4-one]?
inhibition in vivo at 30 mg/kg [1]: 48%; Reduction Rate (%) Free Fatty Acids (db/db mice): 25%; Reduction Rate (%) Triglycerides (db/db mice): 41%; Reduction Rate (%) β-lipoproteins (db/db mice): 38%; Absorbance Ratio [2]: 2.02

With CCC(Oc1ccc(C)cc1)c1ccccc1 (stereo not drawn) [Compound 32] as the compound, how does the inhibition in vivo at 30 mg/kg [1] read?
Its inhibition in vivo at 30 mg/kg is 47%.

With N#CN=C1NC(=O)/C(=C\c2ccc(C=Cc3ccccc3)cc2)S1.[Na] [Compound 63, 2-(N-Cyanoimino)-5-[(E)-4-stylylbenzylidene]thiazolidin-4-one Sodium Salt] as the compound, how does the “Reduction in Blood Glucose (%)” value [4, 5] read?
Its value is 32%.

With Cc1c(C)c2c(c(C)c1O)CCC(C)(COc1ccc(CC3SC(=O)NC3=O)cc1)O2 (stereo not drawn) [troglitazone, reference compound] as the compound, how does the “Reduction in Blood Glucose (%)” value [4, 6] read?
The value was 18%.

Reference: US6667328B2, “Therapeutic agents for diabetes” (Fujimoto Brothers Co., Ltd., priority 2000, dated 2003)
